# In article PMC8639922, “KSHV transactivator-derived small peptide traps coactivators to attenuate MYC and inhibits leukemia and lymphoma cell growth” (Communications Biology, 2021):
# Square brackets hold non-standard residues; d marks the D form. Peptide text beside a SMILES is read from it. Orn = NCCC[C@H](N)C(=O)O; βAla = NCCC(=O)O
# Test system: MYC promoter and putative enhancer regions
# Assay: CUT&RUN qPCR, H3K27Ac modification
# Assay type: cell-based, human
# Parameters: key: enrichment normalized to spiked-in luciferase plasmid DNA control
# Settings: spiked-in luciferase plasmid control
# From the text: We next examined the molecular mechanism of MYC down-regulation by VGN50. We first utilized Cleavage under targets & release using nuclease (CUT&RUN)-sequencing to examine histone modifications that are known to be associated with enhancers in order to map putative MYC enhancer regions in PEL cells (Fig. 5a). Genome-wide CUT&RUN studies identified putative enhancer and promoter regulatory regions that are marked by H3K27Ac, H3K4me1, POLR2A (RNAPII), BRD4, and SMARCC1, a component of the SWI/SNF complex (Fig. 1b and 5a). The identified putative MYC enhancers were also in good agreement with previous ChIP Hi-C[53] and ChIP-seq data sets[54]. Specific primer pairs were then designed to amplify the respective enhancer regions and to examine regulation of coactivator complex recruitment by VGN50.
# Fig. 5 A molecular mechanism of VGN50-mediated MYC-down-regulation. a Cleavage under targets & release using nuclease (CUT&RUN). CUT&RUN was performed with BCBL-1 and BC-1 with the indicated antibodies. Enrichment of active histone modifications, and occupancies of RNAPII and SWI/SNF components at the MYC genomic region are shown as peaks. One of the biological duplicate samples for the BCBL-1 cell line is presented. […] The MYC promoter, enhancer, and negative control regions used for qPCR analyses are indicated with shading. The positions of the MYC coding region, CASC11 coding region, and long non-coding RNA, PVT1, MIR1208 are shown in the panel. b VGN50 inhibits coactivator complex recruitment and c reduces H3K27Ac modification. qPCR is used to examine enrichment of DNA fragments in the presence of VGN50 or mutant peptide (24 μM). Peptide was applied 1 h prior to processing samples for CUT&RUN to replicate SLAM-seq experimental conditions. Non-specific IgG control was also included and enrichment with IgG control at each genomic region was set as 1 for b, and spiked-in luciferase plasmid DNA was used for additional internal control for c. d Formation of a larger protein complex with VGN50. Sucrose gradient sedimentation was used to monitor changes in protein complex formation in the presence of VGN50. The experiment flow chart is shown at the top of this panel. Fractions were collected from top (#1) to bottom (#23/24). Sample #24 without peptide is a smaller fraction of residual samples. Immunoblotting was performed on the odd number samples and the remaining fraction (#24 for no peptide sample) and probed with Flag-tagged SWI/SNF components (SMARCA4, SMARCC2, and SMARCB1). The position of each protein component based on molecular size is indicated. e KSHV K-Rta colocalizes with SWI/SNF components in reactivating BCBL-1 cells. TREx-BCBL-1 cells were triggered for reactivation by treatment with Dox and TPA for 28 h and stained with the indicated antibodies. Images were acquired with Keyence fluorescence microscopy. f A model for VGN50 molecular action. A model depicting the putative molecular action of VGN50 is presented. Coactivator complexes are dynamically assembled on enhancer and promoter regions via transcription factor binding. VGN50, an IDR fragment derived from an exceptionally potent viral transactivator, flexibly interacts with components of coactivators and traps them, thus reduces the available resources for cellular enhancers to activate MYC promoters.
# CUT&RUN[72] was performed essentially by following the online protocol developed by Dr. Henikoff’s lab with a few modifications to fit our needs. Cells were washed with PBS and wash buffer [20 mM HEPES-KOH pH 7.5, 150 mM NaCl, 0.5 mM Spermidine (Sigma, S2626), and proteinase inhibitor (Roche)]. After removing the wash buffer, cells were captured on magnetic concanavalin A (ConA) beads (Polysciences, PA, USA) in the presence of CaCl2. […]
compound,measurement,setting,value
CC(C)C[C@H](NC(=O)CCNC(=O)[C@H](CCCNC(=N)N)NC(=O)[C@H](CCCNC(=N)N)NC(=O)[C@H](CCCNC(=N)N)NC(=O)[C@H](CCCN)NC(=O)[C@H](CCCNC(=N)N)NC(=O)[C@H](CCCNC(=N)N)NC(=O)[C@H](CCCCN)NC(=O)[C@H](CCCCN)NC(=O)[C@H](N)CCCNC(=N)N)C(=O)N[C@@H](CO)C(=O)N[C@@H](CO)C(=O)N[C@@H](C)C(=O)N[C@@H](C)C(=O)N[C@@H](C)C(=O)NCC(=O)N[C@@H](CC(C)C)C(=O)N[C@@H](Cc1ccc(O)cc1)C(=O)N[C@@H](CCC(N)=O)C(=O)N[C@@H](CC(C)C)C(=O)N[C@@H](CC(=O)O)C(=O)N[C@H](C(=O)O)[C@@H](C)O [Mt-P] (H-[dR]KKRR[Orn]RRR[βAla]LSSAAAGLYQLDT-OH; N-terminus and C-terminus assumed),"H3K27Ac enrichment, CUT&RUN qPCR","region Cont., peptide 24 μM 1 h, replicate 1",1.234
same,"H3K27Ac enrichment, CUT&RUN qPCR","region Cont., peptide 24 μM 1 h, replicate 2",1.768
same,"H3K27Ac enrichment, CUT&RUN qPCR","region Cont., peptide 24 μM 1 h, replicate 3",1.486
same,"H3K27Ac enrichment, CUT&RUN qPCR","region E3, peptide 24 μM 1 h, replicate 1",2.706
same,"H3K27Ac enrichment, CUT&RUN qPCR","region E3, peptide 24 μM 1 h, replicate 2",2.727
same,"H3K27Ac enrichment, CUT&RUN qPCR","region E3, peptide 24 μM 1 h, replicate 3",2.006
same,"H3K27Ac enrichment, CUT&RUN qPCR","region E4, peptide 24 μM 1 h, replicate 1",25.383
same,"H3K27Ac enrichment, CUT&RUN qPCR","region E4, peptide 24 μM 1 h, replicate 2",24.888
same,"H3K27Ac enrichment, CUT&RUN qPCR","region E4, peptide 24 μM 1 h, replicate 3",21.090
same,"H3K27Ac enrichment, CUT&RUN qPCR","region E5, peptide 24 μM 1 h, replicate 1",8.581
same,"H3K27Ac enrichment, CUT&RUN qPCR","region E5, peptide 24 μM 1 h, replicate 2",8.863
same,"H3K27Ac enrichment, CUT&RUN qPCR","region E5, peptide 24 μM 1 h, replicate 3",8.913
same,"H3K27Ac enrichment, CUT&RUN qPCR","region P1, peptide 24 μM 1 h, replicate 1",6.685
same,"H3K27Ac enrichment, CUT&RUN qPCR","region P1, peptide 24 μM 1 h, replicate 2",5.570
same,"H3K27Ac enrichment, CUT&RUN qPCR","region P1, peptide 24 μM 1 h, replicate 3",7.094
